# Structures can show the parent of a compound that is named as a salt. Where two headings read alike, the source gives them in different places.
# What was measured:
# [1] = test system: PSEUDOMONAS AERUGINOSA K799/61; assay: In vitro MIC, agar dilution (BHIA); assay type: cell-based
# PSEUDOMONAS CEPACIA 296I = assay: In vitro MIC, agar dilution (BHIA); assay type: cell-based
# E. Coli Juhl = assay: Acute mouse protection test; assay type: in vivo; conditions: mice infected i.p. with E. Coli JUHL, observed 7 days; for SC (ED50): SC dosing at 1 and 5 hours post-infection; for Oral (ED50): oral dosing at 1 and 5 hours post-infection
# [2] = test system: MICROCOCCUS LUTEUS ATCC 4698; assay: In vitro MIC, agar dilution (BHIA); assay type: cell-based
# ESCHERICHIA COLI H560 = assay: In vitro MIC, agar dilution (BHIA); assay type: cell-based
# Description: (§1) The MIC results are in ug/ml.
# ESCHERICHIA COLI SS = assay: In vitro MIC, agar dilution (BHIA); assay type: cell-based
# Description: as §1
# [3] = test system: STREPTOCOCCUS PYOGENES 2548 INDUC; assay: In vitro MIC, agar dilution (BHIA); assay type: cell-based
# [4] = test system: PROVIDENCIA STUARTII CMX 640; assay: In vitro MIC, agar dilution (BHIA); assay type: cell-based
# [5] = test system: STREPTOCOCCUS BOVIS A5169; assay: In vitro MIC, agar dilution (BHIA); assay type: cell-based
# Stap. Aureus NCTC 10649 = assay: Acute mouse protection test; assay type: in vivo; conditions: mice infected i.p. with Stap. Aureus NCTC 10649, observed 7 days; for SC (ED50): SC dosing at 1 and 5 hours post-infection; for Oral (ED50): oral dosing at 1 and 5 hours post-infection
# [6] = test system: STREPTOCOCCUS AGALACTIAE CMX 508; assay: In vitro MIC, agar dilution (BHIA); assay type: cell-based
# [7] = test system: PSEUDOMONAS AERUGINOSA BMH10; assay: In vitro MIC, agar dilution (BHIA); assay type: cell-based
# [8] = test system: STREPTOCOCCUS PYOGENES 930 CONST; assay: In vitro MIC, agar dilution (BHIA); assay type: cell-based
# [9] = test system: KLEBSIELLA PNEUMONIAE ATCC 8045; assay: In vitro MIC, agar dilution (BHIA); assay type: cell-based
# ACINETOBACTER SP CMX 669 = assay: In vitro MIC, agar dilution (BHIA); assay type: cell-based
# [10] = test system: PSEUDOMONAS AERUGINOSA K799/WT; assay: In vitro MIC, agar dilution (BHIA); assay type: cell-based
# [11] = test system: STREPTOCOCCUS PYOGENES EES61; assay: In vitro MIC, agar dilution (BHIA); assay type: cell-based
# P. Aeruginosa A5007 = assay: Acute mouse protection test; assay type: in vivo; conditions: mice infected i.p. with P. Aeruginosa A5007, observed 7 days; for SC (ED50): SC dosing at 1 and 5 hours post-infection; for Oral (ED50): oral dosing at 1 and 5 hours post-infection
# [12] = test system: PSEUDOMONAS AERUGINOSA A5007; assay: In vitro MIC, agar dilution (BHIA); assay type: cell-based
# [13] = test system: MICROCOCCUS LUTEUS ATCC 9341; assay: In vitro MIC, agar dilution (BHIA); assay type: cell-based
# [14] = test system: ENTEROBACTER AEROGENES ATCC 13048; assay: In vitro MIC, agar dilution (BHIA); assay type: cell-based
# [15] = Conversion of prodrug to parent drug in whole blood at 37° C.; assay type: in vitro ADME, Human
# Method: (§2) An aqueous solution of prodrug (Z) is spiked into fresh whole blood containing sodium heparin as an anticoagulant. The sample is mixed gently by inversion and placed in a 37° waterbath. At selected time intervals an 0.5 ml aliquot of blood is removed and placed in a chilled 1.5 ml centrifuge tube (ice temperature). Samples are centrifuges at 13,000 rpm for two minutes to separate plasma. An 0.2 ml aliquot of the plasma sample is combined with 0.2 ml internal standard (7-(4-amino-2-methyl-1-pyrrolidinyl)-1-(2,4-difluorophenyl)-6-fluoro-1,4-d ihydro-4-oxo-1,8-naphthyridine-3-carboxylic acid in 0.2M sodium phosphate pH 7.2 buffer) and 6 mls CH2 Cl2 :EtoH (9:1 by volume). Samples are capped and shaken gently for 10 minutes. Samples are centrifuges at 2500 rpm for 10 minutes (4° C.). The aqueous layer is aspirated to waste and the organic layer is transferred to a conical centrifuge tube and evaporated to dryness with a stream of dry air and low heat ([…]). Samples are reconstituted with 0.2 ml mobile phase followed by vortexing. Samples are centrifuges at 2500 rpm for 10 minutes to separate precipitate. The supernatant is transferred to a WISP vial with plastic insert for HPLC analysis.
# ESCHERICHIA COLI JUHL = assay: In vitro MIC, agar dilution (BHIA); assay type: cell-based
# [16] = test system: ENTEROCOCCUS FAECIUM ATCC 8043; assay: In vitro MIC, agar dilution (BHIA); assay type: cell-based
# [17] = Conversion of prodrug to parent drug in whole blood at 37° C.; assay type: in vitro ADME, Rat
# Method: as §2
# [18] = as above; assay type: in vitro ADME, Dog
# Method: as §2
# ESCHERICHIA COLI DC-2 = assay: In vitro MIC, agar dilution (BHIA); assay type: cell-based
# Description: as §1
# ESCHERICHIA COLI KNK 437 = assay: In vitro MIC, agar dilution (BHIA); assay type: cell-based
# [19] = Solubility in water and at pH 7.4; conditions: for Water Solubility: the sign > refers to an approximate value and the solubility may be within 10% higher
# [20] = Plasma level in dog after oral dose; conditions: 10 mg equivalent/kg oral dose, HPLC
# Description: The plasma samples were collected and determined by the HPLC analysis.
# [21] = STREPTOCOCCUS AGALACTIAE CMX 508
SMILES,MIC [1],MIC (PSEUDOMONAS CEPACIA 296I),SC (ED50) (E. Coli Juhl),Oral (ED50) (E. Coli Juhl),MIC [2],MIC (ESCHERICHIA COLI H560),MIC (ESCHERICHIA COLI SS),MIC [3],MIC [4],SC (ED50) (Stap. Aureus NCTC 10649),Oral (ED50) (Stap. Aureus NCTC 10649),MIC [7],MIC [8],MIC [9],MIC (ACINETOBACTER SP CMX 669),MIC [10],SC (ED50) (P. Aeruginosa A5007),Oral (ED50) (P. Aeruginosa A5007),MIC [12],MIC [13],further results
"NCC(=O)N[C@@H](Cc1ccccc1)C(=O)NC1CCN(c2nc3c(cc2F)c(=O)c(C(=O)O)cn3-c2ccc(F)cc2F)C1 (stereo partly drawn) [Example 1b, 7-[(3-Gly-L-Phe-amino)-1-pyrrolidinyl]-1-(2,4-difluorophenyl)-6-fluoro-1,4-dihydro-4-oxo-1,8-naphthyridine-3-carb oxylic acid hydrochloride]",12.5 µg/mL,50 µg/mL,0.6 mg/kg/day,1.8 mg/kg/day,.78 µg/mL,1.56 µg/mL,.2 µg/mL,.78 µg/mL,100 µg/mL,0.5 mg/kg/day,0.7 mg/kg/day,25 µg/mL,.78 µg/mL,12.5 µg/mL,12.5 µg/mL,25 µg/mL,8.0 mg/kg/day,27.3 mg/kg/day,25 µg/mL,6.25 µg/mL,MIC ([5]; STR[…] A5169): 1.56 µg/mL; MIC ([6]; STR[…] 508): 1.56 µg/mL; MIC ([11]; STR[…] EES61): 1.56 µg/mL
NC(Cc1ccccc1)C(=O)NC1CCN(c2nc3c(cc2F)c(=O)c(C(=O)O)cn3-c2ccc(F)cc2F)C1 (stereo not shown) [Example 5],1.56 µg/mL,> 100 µg/mL,0.7 mg/kg/day,3.5 mg/kg/day,12.5 µg/mL,3.1 µg/mL,.1 µg/mL,.78 µg/mL,> 100 µg/mL,1.0 mg/kg/day,3.6 mg/kg/day,25 µg/mL,–,1.56 µg/mL,12.5 µg/mL,25 µg/mL,7.5 mg/kg/day,18.6 mg/kg/day,50 µg/mL,25 µg/mL,"MIC [14]: 12.5 µg/mL; Half Life Human [15]: 10.7 m; MIC (ESCHERICHIA COLI JUHL): 3.1 µg/mL; MIC [16]: 3.1 µg/mL; MIC [6, 21]: 3.1 µg/mL; Half Life Rat [17]: 4.5 m; MIC ([11]; STREPTOCOCCUS PYOGENES EES61): 3.1 µg/mL; Half Life Dog [18]: 8.3 m"
CC(N)C(=O)NC(C)C(=O)NC1CCN(c2nc3c(cc2F)c(=O)c(C(=O)O)cn3-c2ccc(F)cc2F)C1 (stereo not shown) [Example 15],3.1 µg/mL,50 µg/mL,0.5 mg/kg/day,2.0 mg/kg/day,100 µg/mL,6.2 µg/mL,.39 µg/mL,12.5 µg/mL,100 µg/mL,0.8 mg/kg/day,1.3 mg/kg/day,100 µg/mL,12.5 µg/mL,12.5 µg/mL,12.5 µg/mL,50 µg/mL,3.1 mg/kg/day,9.1 mg/kg/day,100 µg/mL,> 100 µg/mL,"MIC [14]: 25 µg/mL; MIC (ESCHERICHIA COLI DC-2): 100 µg/mL; MIC (ESCHERICHIA COLI KNK 437): 50 µg/mL; Half Life Human [15]: 3.0 m; MIC ([5]; STREPTOCOCCUS BOVIS A5169): 50 µg/mL; MIC (ESCHERICHIA COLI JUHL): 12.5 µg/mL; MIC [16]: 50 µg/mL; MIC [6, 21]: 12.5 µg/mL; Half Life Rat [17]: 84.8 s; MIC ([11]; STREPTOCOCCUS PYOGENES EES61): 12.5 µg/mL; Solubility pH 7.4: 1.07 mg/ml; Half Life Dog [18]: 2.4 m"
CCC[C@H](NC(=O)CN)C(=O)NC1CCN(c2nc3c(cc2F)c(=O)c(C(=O)O)cn3-c2ccc(F)cc2F)C1 (stereo partly shown) [Example 52],–,–,–,–,–,–,–,–,–,–,–,–,–,–,–,–,–,–,–,–,Solubility pH 7.4 [19]: 0.08 mg/ml; Water Solubility [19]: 6.89 mg/mL; AUC (0-32h) [20]: 13.9
"CCC[C@H](NC(=O)[C@H](C)N)C(=O)NC1CCN(c2nc3c(cc2F)c(=O)c(C(=O)O)cn3-c2ccc(F)cc2F)C1 (stereo partly shown) [Example 55b, 7-(3-Ala-Nval-amino-1-pyrrolidinyl)-6-fluoro-1-(2,4-difluorophenyl)-1,4-di hydro-4-oxo-1,8-naphthyridine-3-carboxylic acid]",–,–,–,–,–,–,–,–,–,–,–,–,–,–,–,–,–,–,–,–,"Solubility pH 7.4 [19]: 1.03 mg/ml; Water Solubility [19]: 26 mg/mL; Half Life Human ([15]; conversion to parent drug in human whole blood at 37° C., seconds): 88.0 s; Half Life Rat ([17]; conversion to parent drug in rat whole blood at 37° C., seconds): 33.2 s; AUC (0-32h) [20]: 15.4; Half Life Dog ([18]; conversion to parent drug in dog whole blood at 37° C., seconds): 118.0 s"
